{
  "source": "paper PMC5896266",
  "about": "“Development of Matrix Metalloproteinase-2 Inhibitors for Cardioprotection” (Frontiers in Pharmacology, 2018)",
  "key": {"[1]": {"biological_target": "T1, Human MMP-2 catalytic domain (Homo sapiens, UniProt P08253, DEL222-396)", "T1 construct": "Human MMP-2 catalytic domain (residues 110-221, 397-455); made in house", "T1 sequence (P08253 with tags, fused parts or gaps DEL222-396 limits assumed)": "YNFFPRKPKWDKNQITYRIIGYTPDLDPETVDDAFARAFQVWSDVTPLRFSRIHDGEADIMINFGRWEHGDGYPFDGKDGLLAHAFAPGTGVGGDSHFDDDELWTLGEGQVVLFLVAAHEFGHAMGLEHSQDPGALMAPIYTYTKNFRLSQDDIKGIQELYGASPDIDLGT", "assay": "Fluorometric MMP-2 inhibition assay (MTS), catalytic domain", "format": "biochemical", "procedure": "In vitro MMP-2 activity was then measured, using a fluorometric assay in a 384 well format. Human MMP-2 catalytic domain (residues 110-221, 397-455) (Feng et al., [2000]) was expressed in E. coli in form of inclusion bodies. The protein was refolded and then purified by means of Ni-NTA affinity and anion exchange chromatography. Inhibition assays were carried out in 50 mM Tris, 5 mM CaCl2, 300 mM NaCl, 20 μM ZnSO4, pH = 7.5 buffer. For inhibition studies the catalytic domain of the enzyme was pre-incubated with varying amount of inhibitor for 30 min. […] After 1 h incubation at 37°C the fluorescence was detected using a Wallac 1420 Victor2 microplate reader at 320 nm/405 nm Ex/Em wavelength. As an alternative substrate we also used 5-FAM-Pro-Leu-Gly-Leu-Dap(QXL™ 520)-Ala-Arg-NH2, where the fluorescence was detected at 485 nm/520 nm. For each inhibitor candidate, the percentage of inhibition was determined in duplicate experiments at six inhibitor concentrations, chosen to observe a 5–95% range of inhibition.\nSince hydroxamic acids are reported as the primary zinc-binding motif, we intended to select such a library from the AMRI 200,000 member non-exclusive compound repository as a starting point of our drug discovery efforts. Since only a few compounds were available in the repository as hydroxamic acids and the conversion of acids to hydroxamic acids were not applicable to HT parallel synthesis, we decided first to select free acids from the AMRI's compound collection. […] The selected acids were screened in a fluorescent assay using a recombinant human MMP-2 catalytic fragment and a synthetic peptide substrate. […] The hydroxamic acid pairs of the previously measured acids were then tested."}, "MMP-9": {"biological_target": "MMP-9 (Homo sapiens, UniProt P14780)", "sequence (P14780 94-707, species assumed)": "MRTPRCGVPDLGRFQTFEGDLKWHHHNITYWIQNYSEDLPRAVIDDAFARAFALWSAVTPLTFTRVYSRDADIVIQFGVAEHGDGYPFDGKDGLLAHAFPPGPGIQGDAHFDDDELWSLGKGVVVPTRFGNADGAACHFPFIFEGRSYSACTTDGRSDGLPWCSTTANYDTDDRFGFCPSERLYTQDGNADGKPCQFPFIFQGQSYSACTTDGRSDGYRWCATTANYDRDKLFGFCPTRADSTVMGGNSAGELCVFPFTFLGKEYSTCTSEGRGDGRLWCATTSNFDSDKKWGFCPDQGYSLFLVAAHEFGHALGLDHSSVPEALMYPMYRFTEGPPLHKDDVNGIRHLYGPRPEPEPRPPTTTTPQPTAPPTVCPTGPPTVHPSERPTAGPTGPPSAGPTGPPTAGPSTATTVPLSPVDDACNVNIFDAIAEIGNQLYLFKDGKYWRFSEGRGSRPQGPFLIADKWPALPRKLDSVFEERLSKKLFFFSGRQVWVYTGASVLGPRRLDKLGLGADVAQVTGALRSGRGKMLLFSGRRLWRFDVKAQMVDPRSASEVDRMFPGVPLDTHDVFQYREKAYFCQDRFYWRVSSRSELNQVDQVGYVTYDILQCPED", "assay": "MMP-9 inhibition (inhibitory profile)", "format": "biochemical", "conditions": "Table 2", "procedure": "The compounds were measured for MMP-1, 2, 9, 13 to determine their inhibitory profile. Efficiency Index amplifies the two major required effects, selectivity against MMP-1 and the inhibitory activity."}, "[2]": {"system": "neonatal rat cardiac myocytes", "assay": "Cell viability of neonatal rat cardiac myocytes subjected to simulated ischemia/reperfusion", "format": "cell-based", "conditions": "comparison among the tested lead candidates", "procedure": "For our cell viability experiments, 3 day-old cardiomyocytes plated onto 24-well plates were tested under normoxic condition or subjected to simulated ischemia (SI). The normoxic cardiomyocytes were kept under normoxic conditions, i.e., the growth medium was changed to a normoxic solution (in mM: NaCl 125, KCl 5.4, NaH2PO4 1.2, MgCl2 0.5, HEPES 20, glucose 15, taurine 5, CaCl2 1, creatine 2.5, BSA 0.1%, pH 7.4, 310 mOsm/l) (Li et al., [2004]) and the cells were incubated under 95% air and 5% CO2 at 37°C for 2.5 h. […] The cells were then subjected to the following treatments during SI or normoxic protocol: vehicle control or MMP inhibitors at different doses calculated according to IC doses in vitro. […]\nFigure 3 Experimental protocol for cell culture studies and for the ex vivo rat heart model of AMI. […] At the end of the reperfusion, cell viability was determined by using calcein flurescence. […] Subsequently, 2 h reperfusion was applied and then infarct size was determined. […]\nCell viability was assessed by a calcein and propidium iodine assay performed in each group after 2 h reoxygenation. […] Then the calcein solution was replaced with fresh PBS and the fluorescence intensity of each well was detected by a fluorescent plate reader (FluoStar Optima, BMG Labtech, Ortenberg, Germany). […]"}},
  "data": [
    {"smiles": "O=C(O)c1c[nH]c(CN(Cc2ccc(F)cc2)Cc2ccc(OCc3ccccc3)cc2)n1", "note": "[MMPI-1154]", "values": [
      {"measurement": "selectivity over MMP-1", "setting": "[1]; MMP-2 vs MMP-1, Table 2 values", "value": 1.5, "unit": "fold"},
      {"measurement": "IC50", "setting": "[1]; Table 2", "value": 6.6, "unit": "µM"},
      {"measurement": "IC50", "setting": "MMP-9", "value": 13, "unit": "µM"},
      {"measurement": "increase in cell viability during simulated I/R", "setting": "[2]", "value": "highest increase in cell viability"}
    ]}
  ]
}
